# From US20140235616A1, “PYRAZOLOQUINOLINONE DERIVATIVES, PREPARATION THEREOF AND THERAPEUTIC USE THEREOF” (SANOFI, priority 2011, published 2014)
# System: HUVEC cells
# Experiment: Test of in vitro proliferation of HUVEC cells induced with FGF-2
# Settings: Homo sapiens, read-out: HUVEC Proliferation IC50 (M)
# Method: Test of In Vitro Proliferation of HUVEC Cells Induced with Fibroblast Growth Factor 2 (FGF-2).
# After incubation for 48 hours, the medium is aspirated and replaced with the deprivation medium RPMI1640 mentioned previously. A second stimulation is then performed. The cells are again incubated at 37° C. in the presence of CO2. After incubation for 72 hours, the medium is again aspirated and 100 μl of Cell Titer-GLO™ Luminescent Cell Viability Assay (Promega, G7571) are added over 10 minutes. The amount of ATP present in the cells, measured using a luminometer, is proportional to the number cells per well corresponding to the cell proliferation.
row,SMILES,IC50 [M]
1,"O=c1c2cn[nH]c2c2ccc(-c3ccccc3F)cc2n1CC(F)(F)F [Compound 3, 7-(2-fluorophenyl)-5-(2,2,2-trifluoroethyl)-1,5-dihydro-4H-pyrazolo[4,3-c]quinolin-4-one]",6.6e-07
2,"Cc1cc(-c2ccc3c4[nH]ncc4c(=O)n(CC(F)(F)F)c3c2)ccn1 [Compound 186, 7-(2-methylpyrid-4-yl)-5-(2,2,2-trifluoroethyl)-1,5-dihydro-4H-pyrazolo[4,3-c]quinolin-4-one]",3.6e-07

# Biological target: T1, human MetAP2 (Homo sapiens, UniProt P50579)
# T1 construct: made in house; host or cells: Sf9 insect cells (baculovirus)
# T1 sequence (P50579 whole entry): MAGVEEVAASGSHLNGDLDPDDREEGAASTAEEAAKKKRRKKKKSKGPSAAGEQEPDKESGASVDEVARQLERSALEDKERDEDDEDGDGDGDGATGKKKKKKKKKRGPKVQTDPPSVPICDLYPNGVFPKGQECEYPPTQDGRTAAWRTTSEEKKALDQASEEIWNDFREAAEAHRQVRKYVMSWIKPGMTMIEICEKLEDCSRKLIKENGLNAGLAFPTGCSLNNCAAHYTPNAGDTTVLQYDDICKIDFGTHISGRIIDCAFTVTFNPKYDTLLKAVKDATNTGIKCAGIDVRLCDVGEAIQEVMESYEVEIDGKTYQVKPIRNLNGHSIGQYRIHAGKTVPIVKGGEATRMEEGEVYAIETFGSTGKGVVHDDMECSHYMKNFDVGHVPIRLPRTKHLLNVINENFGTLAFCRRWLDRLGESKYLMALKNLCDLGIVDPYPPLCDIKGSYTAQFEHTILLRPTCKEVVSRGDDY
# Experiment: MetAP2 enzymatic screening test (isolated enzyme, Met-Pro-Arg-pNa substrate, absorbance at 405 nm)
# Assay type: biochemical
# Settings: read-out: % inhibition hMETAP2 at 100 nM
# Method: The compounds according to the invention underwent biochemical studies in order to determine their capacity to inhibit the enzyme methionine-aminopeptidase2 (enzymatic test on isolated enzyme).
# MetAP2 Enzymatic Screening Test
# For the enzymatic test, human MetAP2 protein was obtained from a culture supernatant of insect cells (sf9) infected with MetAP2 recombinant baculovirus.
# Before performing the experiment, dialysis of the MetAP2 supernatant is performed over 24 hours at 4° C. in a buffer (10 mM Hepes, 100 mM KCl, 10% glycerol, pH 7.4) in the presence of EDTA (1 mM) over the first 12 hours.
# The dialysis supernatant is recovered and manganese, used as cofactor, is added to a final concentration of 300 μM.
# The enzymatic test is a test in two steps.
# Consequently, the second step consists in reacting the peptides cleaved in the preceding step with a second peptidase in order to release the chromophore.
row,SMILES,inhibition at 0.1 µM [%]
1,"O=c1c2cn[nH]c2c2ccc(-c3ccccc3F)cc2n1CC(F)(F)F [Compound 3, 7-(2-fluorophenyl)-5-(2,2,2-trifluoroethyl)-1,5-dihydro-4H-pyrazolo[4,3-c]quinolin-4-one]",34
2,"Cc1cc(-c2ccc3c4[nH]ncc4c(=O)n(CC(F)(F)F)c3c2)ccn1 [Compound 186, 7-(2-methylpyrid-4-yl)-5-(2,2,2-trifluoroethyl)-1,5-dihydro-4H-pyrazolo[4,3-c]quinolin-4-one]",43
3,"Cc1nc(N)ccc1-c1ccc2c3[nH]ncc3c(=O)n(CC(F)(F)F)c2c1 [Compound 142, 7-(6-amino-2-methylpyrid-3-yl)-5-(2,2,2-trifluoroethyl)-1,5-dihydro-4H-pyrazolo[4,3-c]quinolin-4-one]",44
4,"COc1ccc(-c2ccc3c4[nH]ncc4c(=O)n(CC(F)(F)F)c3c2)c(CO)c1 [Compound 49, 7-(2-hydroxymethyl-4-methoxyphenyl)-5-(2,2,2-trifluoroethyl)-1,5-dihydro-4H-pyrazolo[4,3-c]quinolin-4-one]",45
5,"O=c1c2cn[nH]c2c2ccc(-c3cc(Cl)cnc3Cl)cc2n1CC(F)(F)F [Compound 57, 7-(2,5-dichloropyrid-3-yl)-5-(2,2,2-trifluoroethyl)-1,5-dihydro-4H-pyrazolo[4,3-c]quinolin-4-one]",38
6,"CCn1c(=O)c2cn[nH]c2c2ccc(-c3ccc(C(C)N4CCCC4)cc3)cc21 (stereo not shown) [Compound 22, 5-ethyl-7-[4-(1-pyrrolidin-1-yl-ethyl)phenyl]-1,5-dihydro-4H-pyrazolo[4,3-c]quinolin-4-one]",69
7,"O=c1c2cn[nH]c2c2ccc(-c3cccc(CO)n3)cc2n1CC(F)(F)F [Compound 154, 7-(6-hydroxymethylpyrid-2-yl)-5-(2,2,2-trifluoroethyl)-1,5-dihydro-4H-pyrazolo[4,3-c]quinolin-4-one]",41
8,"CCN(CC)S(=O)(=O)c1ccccc1-c1ccc2c3[nH]ncc3c(=O)n(CC(F)(F)F)c2c1 [Compound 136, N,N-diethyl-2-[4-oxo-5-(2,2,2-trifluoroethyl)-4,5-dihydro-1H-pyrazolo[4,3-c]quinolin-7-yl]benzenesulfonamide]",45
9,"CCn1c(=O)c2cn[nH]c2c2ccc(-c3ccc4[nH]ncc4c3)cc21 [Compound 34, 5-ethyl-7-(1H-indazol-5-yl)-1,5-dihydro-4H-pyrazolo[4,3-c]quinolin-4-one]",62
10,"CCn1c(=O)c2cn[nH]c2c2ccc(-c3cccc(C(=O)NCCOC)c3)cc21 [Compound 39, 3-(5-ethyl-4-oxo-4,5-dihydro-1H-pyrazolo[4,3-c]quinolin-7-yl)-N-(2-methoxyethyl)benzamide]",60
11,"CCc1ncncc1-c1ccc2c3[nH]ncc3c(=O)n(CC(F)(F)F)c2c1 [Compound 143, 7-(4-ethylpyrimidin-5-yl)-5-(2,2,2-trifluoroethyl)-1,5-dihydro-4H-pyrazolo[4,3-c]quinolin-4-one]",43
12,"O=c1c2cn[nH]c2c2ccc(-c3cccc(O)c3)cc2n1CC(F)(F)F [Compound 40, 7-(3-hydroxyphenyl)-5-(2,2,2-trifluoroethyl)-1,5-dihydro-4H-pyrazolo[4,3-c]quinolin-4-one]",40
13,"COc1ccc(-c2ccc3c4[nH]ncc4c(=O)n(CC(F)(F)F)c3c2)cn1 [Compound 128, 7-(6-methoxypyrid-3-yl)-5-(2,2,2-trifluoroethyl)-1,5-dihydro-4H-pyrazolo[4,3-c]quinolin-4-one]",41
14,"O=c1c2cn[nH]c2c2ccc(-c3ccccc3CCO)cc2n1CC(F)(F)F [Compound 131, 7-[2-(2-hydroxy-ethyl)phenyl]-5-(2,2,2-trifluoroethyl)-1,5-dihydro-4H-pyrazolo[4,3-c]quinolin-4-one]",46
15,"COC(=O)c1ccc(-c2ccc3c4[nH]ncc4c(=O)n(CC(F)(F)F)c3c2)c(N)c1 [Compound 55, methyl 3-amino-4-[4-oxo-5-(2,2,2-trifluoroethyl)-4,5-dihydro-1H-pyrazolo[4,3-c]quinolin-7-yl]benzoate]",40
16,"CC(=O)Nc1ncc(C)cc1-c1ccc2c3[nH]ncc3c(=O)n(CC(F)(F)F)c2c1 [Compound 130, N-{5-methyl-3-[4-oxo-5-(2,2,2-trifluoroethyl)-4,5-dihydro-1H-pyrazolo[4,3-c]quinolin-7-yl]pyrid-2-yl}acetamide]",48
17,"COC(=O)c1cccc(-c2ccc3c4[nH]ncc4c(=O)n(CC(F)(F)F)c3c2)n1 [Compound 164, methyl 6-[4-oxo-5-(2,2,2-trifluoroethyl)-4,5-dihydro-1H-pyrazolo[4,3-c]quinolin-7-yl]pyridine-2-carboxylate]",37
18,"O=c1c2cn[nH]c2c2ccc(-c3ccc(CO)cn3)cc2n1CC(F)(F)F [Compound 157, 7-(5-hydroxymethylpyrid-2-yl)-5-(2,2,2-trifluoroethyl)-1,5-dihydro-4H-pyrazolo[4,3-c]quinolin-4-one]",41
19,"COc1cc(C)c(-c2ccc3c4[nH]ncc4c(=O)n(CC(F)(F)F)c3c2)cn1 [Compound 161, 7-(6-methoxy-4-methylpyrid-3-yl)-5-(2,2,2-trifluoroethyl)-1,5-dihydro-4H-pyrazolo[4,3-c]quinolin-4-one]",39
20,"O=c1c2cn[nH]c2c2ccc(-c3cc(Cl)cnc3F)cc2n1CC(F)(F)F [Compound 129, 7-(5-chloro-2-fluoropyrid-3-yl)-5-(2,2,2-trifluoroethyl)-1,5-dihydro-4H-pyrazolo[4,3-c]quinolin-4-one]",36
